Experimental data taken from patent US11130741B2 (Bioimics AB, priority 2016, dated 2021).
In brackets after ≈: the same amount, converted by molar mass. Like-named read-outs stand apart in the source and are kept apart here.

Experiments:
[1] = system: Staphylococcus aureus subsp. aureus (ATCC29213); assay: MIC, broth microdilution (CLSI), Staphylococcus aureus subsp. aureus ATCC29213; format: cell-based; conditions: ATCC29213, Table 15, read-out: S. aureus ("wound") (MIC)
[2] = system: Escherichia coli (ATCC25922); assay: MIC, broth microdilution (CLSI), Escherichia coli ATCC25922
Method: Initial minimal inhibitory concentration (MIC) tests were made on two bacterial strains: • Escherichia coli (ATCC25922) • Staphylococcus aureus (ATCC25923).
Minimal Inhibitory Concentration (MIC)
MIC values were determined using the standard broth microdilution procedure based on the guidelines by the Clinical and Laboratory Standards Institute (CLSI). Briefly, the compounds were dissolved in DMSO to 10 mM. They were diluted in cation-adjusted Mueller-Hinton broth (CAMHB) to four times the highest concentration tested. A serial 2-fold dilution in CAMHB was done in microdilution plates. The inoculum of bacterial strain to be tested was prepared by making a suspension of colonies from an 18 to 24 hours old plate in CAMHB. The inoculum was diluted so that, after inoculation, each well contained approximately 5×10^5 CFU/mL. To a volume of 50 μl compound in CAMHB an equal volume of inoculum was added. The tray was sealed in a plastic bag and incubated at 35° C. for 16 to 20 hours. To aid in the detection of growth the dye resazurin was added to a final concentration 0.001% and incubated at room temperature for 1 h. Reduction of resazurin, and therefore bacterial growth, was seen as a change from blue to pink.

[3] = ATCC25922, read-out: E. coli MIC, Table 15, NI = No inhibition
[4] = ATCC25922, read-out: E. coli MIC

Question: For `Cl.NCCNCCCNc1cc(C(F)(F)F)cc2c1Nc1cc(Br)ccc1S2` [compound 355, N1-(2-aminoethyl)-N3-(8-bromo-3-(trifluoromethyl)-10H-phenothiazin-1-yl)propane-1,3-diamine hydrochloride], which MIC [1] is on record?
Answer: Its MIC is 4 µg/mL.

Question: And the MIC [2, 3]?
Answer: The MIC was 8 µg/mL.

Question: Which MIC [1] does the source give for `COC1CCCN(c2ccc3c(c2)Sc2cc(C(F)(F)F)cc(NC4CCN(CCN)CC4)c2N3)C1.Cl` (stereo not drawn) [compound 326, N-(1-(2-aminoethyl)piperidin-4-yl)-7-(3-methoxy-piperidin-1-yl)-3-(trifluoromethyl)-10H-phenothiazin-1-amine hydrochloride] here?
Answer: Its MIC is 8 µg/mL.

Question: And the MIC [2, 3]?
Answer: Its MIC is 16 µg/mL.

Question: What does the source list for `CN(C)CCNCC(=O)CNc1cc(C(F)(F)F)cc2c1Nc1ccc(N3CCCC3)cc1S2.Cl.Cl` [compound 323, 1-((2-(dimethyl-amino)ethyl)amino)-3-((7-(pyrrolidin-1-yl)-3-(trifluoromethyl)-10H-phenothiazin-1-yl)amino) propan-2-one hydrochloride]?
Answer: MIC [1]: 128 µg/mL; MIC [2, 4]: > 128 µg/mL

Question: With `CC1CC(C)N(c2ccc3c(c2)Sc2cc(C(F)(F)F)cc(NC4CCN(CCN)CC4)c2N3)C1.Cl.Cl` (stereo not drawn) [compound 341, N-(1-(2-aminoethyl)piperidin-4-yl)-7-(2,4-dimethyl-pyrrolidin-1-yl)-3-(trifluoromethyl)-10H-phenothiazin-1-amine hydrochloride] as the compound, how does the MIC [1] read?
Answer: The MIC was 1 µg/mL.

Question: What about the MIC [2, 3] of the same compound?
Answer: The MIC was 8 µg/mL.

Question: Which MIC [1] does the source give for `Cl.Cl.NCCN1CCC(Nc2cc(C(F)(F)F)cc3c2Nc2ccc(C4CCCC4)cc2S3)CC1` [compound 354, N-(1-(2-aminoethyl)piperidin-4-yl)-7-cyclopentyl-3-(trifluoromethyl)-10H-phenothiazin-1-amine hydrochloride] here?
Answer: Its MIC is 1 µg/mL.

Question: And the MIC [2, 3]?
Answer: The MIC was 8 µg/mL.

Question: How did the MIC [1] turn out when `Cl.Cl.N#Cc1ccc2c(c1)Sc1cc(C(F)(F)F)cc(NC(=O)CCNCCN)c1N2` [compound 304, 3-((2-aminoethyl)amino)-N-(7-cyano-3-(trifluoromethyl)-10H-phenothiazin-1-yl)propanamide hydrochloride] was run?
Answer: The MIC was 16 µg/mL.

Question: What about the MIC [2, 3] of the same compound?
Answer: Its MIC is 32 µg/mL.

Question: How did the MIC [1] turn out when `Cl.Cl.NCCCN1c2ccc(C(=O)O)cc2Sc2cc(N3CCN(CCN)CC3)ccc21` [compound 277, 7-(4-(2-aminoethyl)piperazin-1-yl)-10-(3-aminopropyl)-10H-phenothiazine-3-carboxylic acid hydrochloride] was run?
Answer: Its MIC is over 128 µg/mL.

Question: What about the MIC [2, 4] of the same compound?
Answer: Its MIC is over 128 µg/mL.

Question: How did the MIC [1] turn out when `Cl.NCCN1CCC(Nc2cc(C(F)(F)F)cc3c2Nc2ccc(N4CCCC(F)C4)cc2S3)CC1` (stereo not drawn) [compound 318, N-(1-(2-aminoethyl)piperidin-4-yl)-7-(3-fluoro-piperidin-1-yl)-3-(trifluoromethyl)-10H-phenothiazin-1-amine hydrochloride] was run?
Answer: The MIC was 8 µg/mL.

Question: What about the MIC [2, 3] of the same compound?
Answer: The MIC was 16 µg/mL.

Question: For `Cl.NCCNCCCNc1cc(C(F)(F)F)cc2c1Nc1ccc(N3CCCC3)cc1S2` [compound 345, N1-(2-aminoethyl)-N3-(7-(pyrrolidin-1-yl)-3-(trifluoromethyl)-10H-phenothiazin-1-yl)propane-1,3-diamine hydrochloride], which MIC [1] is on record?
Answer: The MIC was 4 µg/mL.

Question: And the MIC [2, 3]?
Answer: The MIC was 32 µg/mL.

Question: What does the source list for `CCOC(=O)c1ccc2c(c1)Sc1cc(Br)ccc1N2CCCN` [compound 276, ethyl 10-(3-aminopropyl)-7-bromo-10H-phenothiazine-3-carboxylate]?
Answer: MIC [1]: 4 µg/mL (≈ 9.82 µM); MIC [2, 3]: 32 µg/mL (≈ 78.6 µM)

Question: What does the source list for `CC1CN(c2ccc3c(c2)Sc2cc(Br)ccc2N3CCCN)CC(C)O1.Cl` (stereo not drawn) [compound 279, 3-(3-bromo-7-(2,6-dimethyl-morpholino)-10H-phenothiazin-10-yl)propan-1-amine hydrochloride]?
Answer: MIC [1]: 16 µg/mL; MIC [2, 3]: 128 µg/mL

Question: How did the MIC [1] turn out when `Cl.NCCNCCCNc1cc(C(F)(F)F)cc2c1Nc1ccc(C3=CCCC3)cc1S2` [compound 358, N1-(2-aminoethyl)-N3-(7-(cyclopent-1-en-1-yl)-3-(trifluoromethyl)-10H-phenothiazin-1-yl) propane-1,3-diaminehydrochloride] was run?
Answer: The MIC was 16 µg/mL.

Question: What about the MIC [2, 3] of the same compound?
Answer: Its MIC is 16 µg/mL.

Question: Which results are given for `Cl.Cl.NCCN(CCN)CCN1CCC(Nc2cc(C(F)(F)F)cc3c2Nc2ccc(N4CCCC4)cc2S3)CC1` [compound 335, N1-(2-aminoethyl)-N1-(2-(4-((7-(pyrrolidin-1-yl)-3-(trifluoromethyl)-10H-phenothiazin-1-yl)amino)piperidin-1-yl)ethyl)ethane-1,2-diamine hydrochloride]?
Answer: MIC [1]: 4 µg/mL; MIC [2, 3]: 64 µg/mL

Question: For `CC1CC(C)CN(c2ccc3c(c2)Nc2c(NC4CCN(CCN)CC4)cc(C(F)(F)F)cc2S3)C1.Cl` (stereo not drawn) [compound 357, N-(1-(2-aminoethyl)piperidin-4-yl)-8-(3,5-dimethyl-piperidin-1-yl)-3-(trifluoromethyl)-10H-phenothiazin-1-amine hydrochloride], which MIC [1] is on record?
Answer: Its MIC is 16 µg/mL.

Question: And the MIC [2, 3]?
Answer: Its MIC is 64 µg/mL.

Question: What does the source list for `Cl.Cl.Cl.NCCCN1c2ccc(N3CCCC3)cc2Sc2cc(N3CCN(CCN)CC3)ccc21` [compound 291, 3-(3-(4-(2-aminoethyl)piperazin-1-yl)-7-(pyrrolidin-1-yl)-10H-phenothiazin-10-yl)propan-1-amine hydrochloride]?
Answer: MIC [1]: 16 µg/mL; MIC [2, 3]: 128 µg/mL

Question: Which MIC [1] does the source give for `NCCCN1c2ccncc2Sc2cc(-c3cc4ccccc4[nH]3)ccc21` [compound 267, 3-(8-(1H-indol-2-yl)-5H-benzo[b]pyrido[4,3-e] [1,4]thiazin-5-yl)propan-1-amine trifluoro acetic acid] here?
Answer: Its MIC is 2 µg/mL (≈ 5.37 µM).

Question: What about the MIC [2, 4] of the same compound?
Answer: Its MIC is 16 µg/mL (≈ 43 µM).

Question: `CC1CCCN(c2ccc3c(c2)Sc2cc(C(F)(F)F)cc(NC(=O)C4CCCC(N)C4)c2N3)C1.Cl.Cl` (stereo not drawn) [compound 313, 3-amino-N-(7-(3-methyl-piperidin-1-yl)-3-(trifluoromethyl)-10H-phenothiazin-1-yl)cyclohexane-1-carboxamide hydrochloride] was tested. Which MIC [1] did it give?
Answer: The MIC was 16 µg/mL.

Question: What about the MIC [2, 3] of the same compound?
Answer: The MIC was over 128 µg/mL.

Question: With `Cl.Cl.NCCN1CCC(Nc2cc(C(F)(F)F)cc3c2Nc2ccc(N4CCc5ccccc54)cc2S3)CC1` [compound 310, N-(1-(2-aminoethyl)piperidin-4-yl)-7-(indolin-1-yl)-3-(trifluoromethyl)-10H-phenothiazin-1-amine hydrochloride] as the compound, how does the MIC [1] read?
Answer: The MIC was 8 µg/mL.

Question: What about the MIC [2, 3] of the same compound?
Answer: The MIC was 128 µg/mL.

Question: For `Cl.NCCN1CCC(Nc2cc(C(F)(F)F)cc3c2Nc2ccc(C4=CCCC4)cc2S3)CC1` [compound 359, N-(1-(2-aminoethyl)piperidin-4-yl)-7-(cyclopent-1-en-1-yl)-3-(trifluoromethyl)-10H-phenothiazin-1-amine hydrochloride], which MIC [1] is on record?
Answer: The MIC was 16 µg/mL.

Question: And the MIC [2, 3]?
Answer: The MIC was 64 µg/mL.

Question: Which results are given for `Cl.NCCOCCCNc1cc(C(F)(F)F)cc2c1Nc1ccc(Br)cc1S2` [compound 344, N-(3-(2-aminoethoxy)propyl)-7-bromo-3-(trifluoromethyl)-10H-phenothiazin-1-amine hydrochloride]?
Answer: MIC [1]: 8 µg/mL; MIC [2, 3]: 16 µg/mL

Question: For `FC(F)(F)c1cc(NC2CC3CCC(C2)N3)c2c(c1)Sc1ccccc1N2` (stereo not drawn) [compound 290, N-(8-azabicyclo[3.2.1]octan-3-yl)-3-(trifluoromethyl)-10H-phenothiazin-1-amine], which MIC [1] is on record?
Answer: Its MIC is 8 µg/mL (≈ 20.4 µM).

Question: What about the MIC [2, 3] of the same compound?
Answer: The MIC was 32 µg/mL (≈ 81.7 µM).

Question: How did the MIC [1] turn out when `Cl.NCCCNc1cc(C(F)(F)F)cc2c1Nc1ccc(N3CCCC3)cc1S2` [compound 324, N1-(7-(pyrrolidin-1-yl)-3-(trifluoromethyl)-10H-phenothiazin-1-yl)propane-1,3-diamine hydrochloride] was run?
Answer: Its MIC is 4 µg/mL.

Question: What about the MIC [2, 3] of the same compound?
Answer: The MIC was 32 µg/mL.

Question: For `Cl.FC(F)(F)c1cc(NC2CCN(CCN3CCNCC3)CC2)c2c(c1)Sc1cc(N3CCCC3)ccc1N2` [compound 330, N-(1-(2-(piperazin-1-yl)ethyl)piperidin-4-yl)-7-(pyrrolidin-1-yl)-3-(trifluoromethyl)-10H-phenothiazin-1-amine hydrochloride], which MIC [1] is on record?
Answer: Its MIC is 128 µg/mL.

Question: What about the MIC [2, 4] of the same compound?
Answer: The MIC was over 128 µg/mL.

Question: `CC1CCCN(c2ccc3c(c2)Sc2cc(C(F)(F)F)cc(NC(=O)CCNCCN)c2N3)C1.Cl.Cl` (stereo not drawn) [compound 308, 3-((2-aminoethyl)amino)-N-(7-(3-methyl-piperidin-1-yl)-3-(trifluoromethyl)-10H-phenothiazin-1-yl)propanamide hydrochloride] was tested. Which MIC [1] did it give?
Answer: Its MIC is 16 µg/mL.

Question: And the MIC [2, 3]?
Answer: The MIC was 64 µg/mL.

Question: Which results are given for `CCOC(=O)c1ccc2c(c1)Sc1cc(N3CCN(CCN)CC3)ccc1N2CCCN` [compound 271, ethyl 7-(4-(2-aminoethyl)piperazin-1-yl)-10-(3-aminopropyl)-10H-phenothiazine-3-carboxylate trifluoro acetic acid]?
Answer: MIC [1]: 128 µg/mL (≈ 281 µM); MIC [2, 4]: > 128 µg/mL

Question: With `Cl.Cl.NCCN1CCC(Nc2cc(C(F)(F)F)cc3c2Nc2ccc(N4CCC5(CCCC5)C4)cc2S3)CC1` [compound 322, N-(1-(2-aminoethyl)piperidin-4-yl)-7-(2-azaspiro [4.4]nonan-2-yl)-3-(trifluoromethyl)-10H-phenothiazin-1-amine hydrochloride] as the compound, how does the MIC [1] read?
Answer: The MIC was 1 µg/mL.

Question: And the MIC [2, 3]?
Answer: Its MIC is 4 µg/mL.

Question: How did the MIC [1] turn out when `Cl.NCCN1CCC(Nc2cc(C(F)(F)F)cc3c2Nc2cc(Br)ccc2S3)CC1` [compound 352, N-(1-(2-aminoethyl)piperidin-4-yl)-8-bromo-3-(trifluoromethyl)-10H-phenothiazin-1-amine hydrochloride] was run?
Answer: Its MIC is 4 µg/mL.

Question: And the MIC [2, 3]?
Answer: The MIC was 8 µg/mL.

Question: What does the source list for `NC1CCCC(C(=O)Nc2cc(C(F)(F)F)cc3c2Nc2ncccc2S3)C1` (stereo not drawn) [compound 263, 3-amino-N-(7-(trifluoromethyl)-10H-benzo[b]pyrido[2,3-e] [1,4]thiazin-9-yl)cyclohexane-1-carboxamide]?
Answer: MIC [1]: 64 µg/mL (≈ 157 µM); MIC [2, 3]: 64 µg/mL (≈ 157 µM)

Question: For `Cl.Cl.NCCN1CCC(Nc2cc(C(F)(F)F)cc3c2Nc2ccc(Br)cc2S3)CC1` [compound 282, N-(1-(2-aminoethyl)piperidin-4-yl)-7-bromo-3-(trifluoromethyl)-10H-phenothiazin-1-amine hydrochloride], which MIC [1] is on record?
Answer: Its MIC is 4 µg/mL.

Question: What about the MIC [2, 3] of the same compound?
Answer: Its MIC is 8 µg/mL.

Question: `Cl.Cl.NCCN1CCC(Nc2cc(C(F)(F)F)cc3c2Nc2ccc(N4CCCCC4)cc2S3)CC1` [compound 289, N-(1-(2-aminoethyl)piperidin-4-yl)-7-(piperidin-1-yl)-3-(trifluoromethyl)-10H-phenothiazin-1-amine hydrochloride] was tested. Which MIC [1] did it give?
Answer: Its MIC is 4 µg/mL.

Question: What about the MIC [2, 3] of the same compound?
Answer: Its MIC is 8 µg/mL.
